Laboratory results: PubChem BioAssay (NCI)
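Assay format: 96-well plates, 48-hour exposure. TGI: concentration producing complete growth inhibition.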

What was measured:
Assay in all cases: NCI anticancer screen, dose series, 48 h
786-0 renal = system: 786-0 renal
A498 renal = system: A498 renal
A549 NSCLC = system: A549 NSCLC
ACHN renal = system: ACHN renal
BT-549 breast = system: BT-549 breast
CAKI-1 renal = system: CAKI-1 renal
CCRF-CEM leukemia = system: CCRF-CEM leukemia
COLO 205 colon = system: COLO 205 colon
DU-145 prostate = system: DU-145 prostate
EKVX NSCLC = system: EKVX NSCLC
HCC-2998 colon = system: HCC-2998 colon
HCT-116 colon = system: HCT-116 colon
HCT-15 colon = system: HCT-15 colon
HL-60(TB) leukemia = system: HL-60(TB) leukemia
HOP-62 NSCLC = system: HOP-62 NSCLC
HOP-92 NSCLC = system: HOP-92 NSCLC
HS 578T breast = system: HS 578T breast
HT29 colon = system: HT29 colon
IGROV1 ovarian = system: IGROV1 ovarian
K-562 leukemia = system: K-562 leukemia
KM12 colon = system: KM12 colon
LOX IMVI melanoma = system: LOX IMVI melanoma
M14 melanoma = system: M14 melanoma
MALME-3M melanoma = system: MALME-3M melanoma
MCF7 breast = system: MCF7 breast
MDA-MB-231 breast = system: MDA-MB-231 breast
MDA-MB-435 = system: MDA-MB-435
MDA-N = system: MDA-N
MOLT-4 leukemia = system: MOLT-4 leukemia
NCI-H226 lung = system: NCI-H226 lung
NCI-H23 lung = system: NCI-H23 lung
NCI-H460 lung = system: NCI-H460 lung
NCI-H522 lung = system: NCI-H522 lung
NCI/ADR-RES ovarian = system: NCI/ADR-RES ovarian
OVCAR-3 ovarian = system: OVCAR-3 ovarian
OVCAR-4 ovarian = system: OVCAR-4 ovarian
OVCAR-5 ovarian = system: OVCAR-5 ovarian
OVCAR-8 ovarian = system: OVCAR-8 ovarian
PC-3 prostate = system: PC-3 prostate
RPMI-8226 leukemia = system: RPMI-8226 leukemia
RXF 393 renal = system: RXF 393 renal
SF-268 CNS = system: SF-268 CNS
SF-295 CNS = system: SF-295 CNS
SF-539 CNS = system: SF-539 CNS
SK-MEL-2 melanoma = system: SK-MEL-2 melanoma
SK-MEL-28 melanoma = system: SK-MEL-28 melanoma
SK-MEL-5 melanoma = system: SK-MEL-5 melanoma
SNB-19 CNS = system: SNB-19 CNS
SNB-75 CNS = system: SNB-75 CNS
SW-620 colon = system: SW-620 colon
U251 CNS = system: U251 CNS
UACC-257 melanoma = system: UACC-257 melanoma
UO-31 renal = system: UO-31 renal
SK-OV-3 ovarian = system: SK-OV-3 ovarian
SN12C renal = system: SN12C renal
SR leukemia = system: SR leukemia
T-47D breast = system: T-47D breast
TK-10 renal = system: TK-10 renal
UACC-62 melanoma = system: UACC-62 melanoma

Measured: TGI

O=c1[nH]c2c(c(=O)[nH]1)SC(c1ccccc1)C2 (configuration not stated)
> 100 µM: 786-0 renal | A498 renal | A549 NSCLC | ACHN renal | BT-549 breast | CAKI-1 renal | CCRF-CEM leukemia | COLO 205 colon | DU-145 prostate | EKVX NSCLC | HCC-2998 colon | HCT-116 colon | HCT-15 colon | HL-60(TB) leukemia | HOP-62 NSCLC | HOP-92 NSCLC | HS 578T breast | HT29 colon | IGROV1 ovarian | K-562 leukemia | KM12 colon | LOX IMVI melanoma | M14 melanoma | MALME-3M melanoma | MCF7 breast | MDA-MB-231 breast | MDA-MB-435 | MDA-N | MOLT-4 leukemia | NCI-H226 lung | NCI-H23 lung | NCI-H460 lung | NCI-H522 lung | NCI/ADR-RES ovarian | OVCAR-3 ovarian | OVCAR-4 ovarian | OVCAR-5 ovarian | OVCAR-8 ovarian | PC-3 prostate | RPMI-8226 leukemia | RXF 393 renal | SF-268 CNS | SF-295 CNS | SF-539 CNS | SK-MEL-2 melanoma | SK-MEL-28 melanoma | SK-MEL-5 melanoma | SNB-19 CNS | SNB-75 CNS | SW-620 colon | U251 CNS | UACC-257 melanoma | UO-31 renal

O=C(c1cscc1CCc1ccccc1)c1cscc1CCc1ccccc1
> 100 µM: 786-0 renal | A498 renal | A549 NSCLC | ACHN renal | BT-549 breast | CAKI-1 renal | CCRF-CEM leukemia | COLO 205 colon | DU-145 prostate | EKVX NSCLC | HCC-2998 colon | HCT-116 colon | HCT-15 colon | HOP-62 NSCLC | IGROV1 ovarian | K-562 leukemia | KM12 colon | LOX IMVI melanoma | M14 melanoma | MALME-3M melanoma | MCF7 breast | MDA-MB-231 breast | MDA-MB-435 | MDA-N | MOLT-4 leukemia | NCI-H226 lung | NCI-H23 lung | NCI-H460 lung | NCI-H522 lung | NCI/ADR-RES ovarian | OVCAR-4 ovarian | OVCAR-5 ovarian | OVCAR-8 ovarian | PC-3 prostate | RPMI-8226 leukemia | RXF 393 renal | SF-268 CNS | SF-295 CNS | SF-539 CNS | SK-MEL-2 melanoma | SK-MEL-28 melanoma | SK-MEL-5 melanoma | SK-OV-3 ovarian | SN12C renal | SNB-19 CNS | SNB-75 CNS | SR leukemia | SW-620 colon | T-47D breast | TK-10 renal | U251 CNS | UACC-257 melanoma | UACC-62 melanoma | UO-31 renal
